Measurements as given in ChEMBL document CHEMBL1177848, “Synthesis of novel 6,6a,7,8-tetrahydro-5H-naphtho[1,2-e]pyrimido[4,5-b][1,4]diazepines under microwave irradiation as potential anti-tumor agents” (2010).
Activity calls are given as the source filed them. No cut-off for these calls is given here.

Experiments:
[1] = test system: TK-10; assay: Growth inhibition of human TK10 cells after 48 hrs by sulforhodamine B assay; format: functional; details: TK-10, 48 h
[2] = test system: LOX IMVI; assay: Growth inhibition of human LOXIMVI cells after 48 hrs by sulforhodamine B assay; format: functional
[3] = test system: RXF 393; assay: Growth inhibition of human RXF393 cells at 1 uM after 48 hrs by sulforhodamine B assay; format: functional, cell-based
[4] = test system: M14; assay: Growth inhibition of human M14 cells at 1 uM after 48 hrs by sulforhodamine B assay; format: functional, cell-based
[5] = test system: SF-539; assay: Growth inhibition of human SF539 cells at 1 uM after 48 hrs by sulforhodamine B assay; format: functional, cell-based
[6] = test system: IGROV-1; assay: Growth inhibition of human IGROV1 cells after 48 hrs by sulforhodamine B assay; format: functional; details: IGROV-1, 48 h
[7] = test system: RPMI-8226; assay: Growth inhibition of human RPMI8226 cells after 48 hrs by sulforhodamine B assay; format: functional; details: RPMI-8226, 48 h
[8] = test system: HT-29; assay: Growth inhibition of human HT-29 cells at 1 uM after 48 hrs by sulforhodamine B assay; format: functional, cell-based
[9] = test system: OVCAR-3; assay: Growth inhibition of human OVCAR-3 cells after 48 hrs by sulforhodamine B assay; format: functional; details: OVCAR-3, 48 h
[10] = test system: EKVX; assay: Growth inhibition of human EKVX cells at 1 uM after 48 hrs by sulforhodamine B assay; format: functional, cell-based
[11] = test system: UACC-62; assay: Growth inhibition of human UACC62 cells at 1 uM after 48 hrs by sulforhodamine B assay; format: functional, cell-based
[12] = test system: NCI-H460; assay: Growth inhibition of human NCI-H460 cells after 48 hrs by sulforhodamine B assay; format: functional; details: NCI-H460, 48 h
[13] = test system: DU-145; assay: Growth inhibition of human DU145 cells at 1 uM after 48 hrs by sulforhodamine B assay; format: functional, cell-based
[14] = test system: NCI/ADR-RES; assay: Growth inhibition of human NCI/ADR-RES cells after 48 hrs by sulforhodamine B assay; format: functional
[15] = test system: NCI-H23; assay: Growth inhibition of human NCI-H23 cells after 48 hrs by sulforhodamine B assay; format: functional; details: NCI-H23, 48 h
[16] = test system: COLO 205; assay: Growth inhibition of human COLO205 cells at 1 uM after 48 hrs by sulforhodamine B assay; format: functional, cell-based
[17] = test system: Malme-3M; assay: Growth inhibition of human MALME-3M cells at 1 uM after 48 hrs by sulforhodamine B assay; format: functional, cell-based
[18] = test system: ACHN; assay: Growth inhibition of human ACHN cells after 48 hrs by sulforhodamine B assay; format: functional
[19] = test system: OVCAR-4; assay: Growth inhibition of human OVCAR4 cells after 48 hrs by sulforhodamine B assay; format: functional; details: OVCAR-4, 48 h
[20] = test system: HCT-15; assay: Growth inhibition of human HCT15 cells after 48 hrs by sulforhodamine B assay; format: functional; details: HCT-15, 48 h
[21] = test system: Hs-578T; assay: Growth inhibition of human Hs 578T cells at 1 uM after 48 hrs by sulforhodamine B assay; format: functional, cell-based
[22] = test system: NCI-H322M; assay: Growth inhibition of human […] cells at 1 uM after 48 hrs by sulforhodamine B assay; format: functional, cell-based
[23] = test system: SN12C; assay: Growth inhibition of human SN12C cells after 48 hrs by sulforhodamine B assay; format: functional
[24] = test system: SW-620; assay: Growth inhibition of human SW620 cells at 1 uM after 48 hrs by sulforhodamine B assay; format: functional, cell-based
[25] = test system: NCI-H23; assay: Growth inhibition of human NCI-H23 cells at 1 uM after 48 hrs by sulforhodamine B assay; format: functional, cell-based
[26] = test system: ACHN; assay: Growth inhibition of human ACHN cells at 1 uM after 48 hrs by sulforhodamine B assay; format: functional, cell-based
[27] = test system: SK-MEL-5; assay: Growth inhibition of human SK-MEL-5 cells after 48 hrs by sulforhodamine B assay; format: functional; details: SK-MEL-5, 48 h
[28] = test system: SW-620; assay: Growth inhibition of human SW620 cells after 48 hrs by sulforhodamine B assay; format: functional; details: SW-620, 48 h
[29] = test system: RPMI-8226; assay: Growth inhibition of human RPMI8226 cells at 1 uM after 48 hrs by sulforhodamine B assay; format: functional, cell-based
[30] = test system: KM12; assay: Growth inhibition of human KM12 cells at 1 uM after 48 hrs by sulforhodamine B assay; format: functional, cell-based
[31] = test system: IGROV-1; assay: Growth inhibition of human IGROV1 cells at 1 uM after 48 hrs by sulforhodamine B assay; format: functional, cell-based
[32] = test system: MDA-MB-468; assay: Growth inhibition of human MDA-MB-468 cells after 48 hrs by sulforhodamine B assay; format: functional; details: MDA-MB-468, 48 h
[33] = test system: HCT-116; assay: Growth inhibition of human HCT116 cells at 1 uM after 48 hrs by sulforhodamine B assay; format: functional, cell-based
[34] = test system: COLO 205; assay: Growth inhibition of human COLO205 cells after 48 hrs by sulforhodamine B assay; format: functional; details: COLO 205, 48 h
[35] = test system: UACC-257; assay: Growth inhibition of human UACC257 cells at 1 uM after 48 hrs by sulforhodamine B assay; format: functional, cell-based
[36] = test system: UACC-257; assay: Growth inhibition of human UACC257 cells after 48 hrs by sulforhodamine B assay; format: functional; details: UACC-257, 48 h
[37] = test system: HCT-15; assay: Growth inhibition of human HCT15 cells at 1 uM after 48 hrs by sulforhodamine B assay; format: functional, cell-based
[38] = test system: HOP-92; assay: Growth inhibition of human HOP92 cells at 1 uM after 48 hrs by sulforhodamine B assay; format: functional, cell-based
[39] = test system: MDA-MB-435; assay: Growth inhibition of human MDA-MB-435 cells at 1 uM after 48 hrs by sulforhodamine B assay; format: functional, cell-based
[40] = test system: K562; assay: Growth inhibition of human K562 cells at 1 uM after 48 hrs by sulforhodamine B assay; format: functional, cell-based
[41] = test system: HOP-62; assay: Growth inhibition of human HOP62 cells at 1 uM after 48 hrs by sulforhodamine B assay; format: functional, cell-based
[42] = test system: OVCAR-8; assay: Growth inhibition of human OVCAR8 cells at 1 uM after 48 hrs by sulforhodamine B assay; format: functional, cell-based
[43] = test system: SF-295; assay: Growth inhibition of human SF295 cells after 48 hrs by sulforhodamine B assay; format: functional; details: SF-295, 48 h
[44] = test system: SR; assay: Growth inhibition of human SR cells at 1 uM after 48 hrs by sulforhodamine B assay; format: functional, cell-based
[45] = test system: NCI-H522; assay: Growth inhibition of human NCI-H522 cells after 48 hrs by sulforhodamine B assay; format: functional; details: NCI-H522, 48 h
[46] = test system: NCI-H522; assay: Growth inhibition of human NCI-H522 cells at 1 uM after 48 hrs by sulforhodamine B assay; format: functional, cell-based
[47] = read-out: LC50 (the source's name)

## Nc1nc(N)c2c(n1)NC(c1ccc(Cl)cc1)C1CCc3ccccc3C1=N2 (stereo not given)
[1]
  GI50: 8.2 µM
  LC50 (50% lethal concentration): 58 µM
[2]
  GI50: 3.53 µM
  LC50: 44.5 µM
[3]
  growth inhibition (GI): inactive
[4]
  growth inhibition (GI): inactive
[5]
  growth inhibition (GI): inactive
[6]
  GI50: 6.16 µM
  LC50 (concentration killing 50% of cells): 49.9 µM
[7]
  GI50: 2.75 µM
  LC50: 57.9 µM
[8]
  growth inhibition (GI): inactive
[9]
  GI50: 6.46 µM
  LC50 (lethal concentration, 50% cell kill): 43.6 µM
[10]
  growth inhibition (GI): inactive
[11]
  growth inhibition (GI): inactive
[12]
  GI50: 3.77 µM
  LC50: 39.1 µM
[13]
  growth inhibition (GI): inactive
[14]
  GI50: 5.53 µM
  LC50 (concentration killing 50% of cells): 43.8 µM
[15]
  GI50: 4.88 µM
  LC50: 44.7 µM
[16]
  growth inhibition (GI): inactive
[17]
  growth inhibition (GI): inactive
[18]
  GI50: 4.72 µM
  LC50 (50% lethal concentration): 44.2 µM
[19]
  GI50: 6.45 µM
  LC50 (50% lethal concentration): 50.9 µM
[20]
  GI50: 4.16 µM
  LC50: 53.9 µM
[21]
  growth inhibition (GI): inactive
[22]
  growth inhibition (GI): inactive
[23]
  GI50: 7.68 µM
[23]; [47]
  CC50: 50.9 µM
[24]
  growth inhibition (GI): inactive
[25]
  growth inhibition (GI): inactive
[26]
  growth inhibition (GI): inactive
[27]
  GI50: 0.5 µM
  LC50: 6.56 µM
[28]
  GI50: 8.23 µM
  LC50: 54.9 µM
[29]
  growth inhibition (GI): inactive
[30]
  growth inhibition (GI): inactive
[31]
  growth inhibition (GI): inactive
[32]
  GI50: 1.6 µM
[32]; [47]
  CC50: 54.5 µM
[33]
  growth inhibition (GI): inactive
[34]
  GI50: 2.78 µM
  LC50 (50% lethal concentration): 30.1 µM
[35]
  growth inhibition (GI): inactive
[36]
  GI50: 7.07 µM
[36]; [47]
  CC50: 44.9 µM
[37]
  growth inhibition (GI): inactive
[38]
  growth inhibition (GI): inactive
[39]
  growth inhibition (GI): inactive
[40]
  growth inhibition (GI): inactive
[41]
  growth inhibition (GI): inactive
[42]
  growth inhibition (GI): inactive
[43]
  GI50: 3.37 µM
  LC50 (50% lethal concentration): 40.7 µM
[44]
  growth inhibition (GI): inactive
[45]
  GI50: 5.21 µM
  LC50: 54.4 µM
[46]
  growth inhibition (GI): inactive
